Results on 33 molecules are retold here after patent US12686687B2, “Compounds and uses thereof” (Foghorn Therapeutics Inc., priority 2019, dated 2026).

For the test, the target named is T1, Nanoluciferase-BRD9 fusion protein (3×FLAG-NLuc-BRD9) in SYO-1 cells (Homo sapiens, UniProt Q9H8M2).
T1 construct: expressed in transfected cells; host or cells: SYO-1
T1 sequence (Q9H8M2 1-597): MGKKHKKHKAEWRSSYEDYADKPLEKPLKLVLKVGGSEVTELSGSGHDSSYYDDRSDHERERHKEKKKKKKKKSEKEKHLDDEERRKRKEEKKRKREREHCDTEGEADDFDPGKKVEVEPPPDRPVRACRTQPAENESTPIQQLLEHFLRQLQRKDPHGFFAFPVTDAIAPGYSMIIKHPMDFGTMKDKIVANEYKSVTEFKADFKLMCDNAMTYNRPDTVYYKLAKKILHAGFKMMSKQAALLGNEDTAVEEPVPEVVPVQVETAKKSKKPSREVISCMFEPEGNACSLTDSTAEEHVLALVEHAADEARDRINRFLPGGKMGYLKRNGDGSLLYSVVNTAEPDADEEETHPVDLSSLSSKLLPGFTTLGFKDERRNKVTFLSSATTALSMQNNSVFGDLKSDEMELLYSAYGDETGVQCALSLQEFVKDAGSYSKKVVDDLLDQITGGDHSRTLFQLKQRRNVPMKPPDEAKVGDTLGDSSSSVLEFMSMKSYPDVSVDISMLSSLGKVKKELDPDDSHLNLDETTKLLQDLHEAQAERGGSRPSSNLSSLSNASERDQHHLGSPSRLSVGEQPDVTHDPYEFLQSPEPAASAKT
The experiment in a line: SYO1 BRD9 NanoLuc degradation assay. Type of test: cell-based. Particulars: Table 6C; SYO-1 cells expressing 3×FLAG-NLuc-BRD9, 6 hours incubation, 1 μM top dose; read-out: SYO1 BRD9-NanoLuc degradation IC50. Summed up: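 Stable SYO-1 line expressing 3×FLAG-NLuc-BRD9 was seeded at 8000 cells/well, then treated next day for 6 h with 10-point 3-fold dilutions (top 1 μM final). Nano-Glo luminescence was read. % inhibition was normalised to DMSO (high control) and 1 μM reference BRD9 degrader (low control).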
With `COc1cc(-c2cn(C)c(=O)c3cc(C)sc23)cc(OC)c1CN1CCC2(CC1)CN(c1ccc3c(c1)C(=O)N(C1CCC(=O)NC1=O)C3)C2` (stereo not drawn) [Compound D132], the DC50 was below 10 nM. The result for `COc1cc(-c2cn(C)c(=O)c3cc(C(=O)N(C)C)sc23)cc(OC)c1CN1CCC2(CC1)CN(c1ccc3c(c1)C(=O)N(C1CCC(=O)NC1=O)C3)C2` (stereo not drawn) [Compound D133] reads below 10 nM. The result for `COc1cc(-c2cn(C)c(=O)c3cc(C(=O)N[C@@H]4CCN(C5CCN(c6ccc7c(c6)C(=O)N([C@@H]6CCC(=O)NC6=O)C7)CC5)CC4(F)F)sc23)cc(OC)c1CN(C)C` [Compound D134] reads below 10 nM. Turning to `COc1cc(-c2cn(C)c(=O)c3cc(C(=O)N[C@@H]4CCN(C5CCN(c6ccc7c(c6)C(=O)N([C@@H]6CCC(=O)NC6=O)C7)CC5)CC4(F)F)sc23)cc(OC)c1CN(C)C` [Compound D135], the DC50 is below 10 nM. To `COc1cc(-c2cn(C)c(=O)c3ccsc23)cc(OC)c1CN1[C@H](C)CN(c2ccc3c(c2)CN(C2CCC(=O)NC2=O)C3=O)C[C@H]1C` (stereo partly drawn) [Compound D136] belongs below 10 nM; to `COc1cc(-c2cn(C)c(=O)c3cc(C(=O)NC4CCN(C5CC6(C5)CN(c5ccc7c(c5)CN(C5CCC(=O)NC5=O)C7=O)C6)CC4(F)F)sc23)cc(OC)c1CN(C)C` (stereo not drawn) [Compound D137], above 100 nM; to `CNC(=O)c1cc2c(=O)n(C)cc(-c3cc(OC)c(CN4CCC5(CC4)CN(c4ccc6c(c4)C(=O)N(C4CCC(=O)NC4=O)C6)C5)c(OC)c3)c2s1` (stereo not drawn) [Compound D138], below 10 nM. For the molecule `COc1cc(-c2cn(C)c(=O)c3cc(C#N)sc23)cc(OC)c1CN1CCC2(CC1)CN(c1ccc3c(c1)C(=O)N(C1CCC(=O)NC1=O)C3)C2` (stereo not drawn) [Compound D139], the DC50 was below 10 nM. To `COc1cc(-c2cn(C)c(=O)c3cc(C(=O)N[C@H]4CCN(C5CCN(c6ccc7c(c6)C(=O)N([C@@H]6CCC(=O)NC6=O)C7)CC5)CC4(F)F)sc23)cc(OC)c1CN(C)C` [Compound D140] belongs below 10 nM. The result for `COc1cc(-c2cn(C)c(=O)c3cc(C(=O)N[C@H]4CCN(C5CCN(c6ccc7c(c6)C(=O)N([C@H]6CCC(=O)NC6=O)C7)CC5)CC4(F)F)sc23)cc(OC)c1CN(C)C` [Compound D141] reads below 10 nM; that for `COc1cc(-c2cn(C)c(=O)c3cc(C(=O)NC4CCN(C5CCN(c6ccc7c(c6)C(=O)N(C6CCC(=O)N(C)C6=O)C7)CC5)CC4(F)F)sc23)cc(OC)c1CN(C)C` (stereo not drawn) [Compound D142], above 1000 nM; that for `COc1cc(-c2cn(C)c(=O)c3cc(C(=O)NC4CCN(c5ccc6c(c5)C(=O)N(C5CCC(=O)N(C)C5=O)C6)CC4(F)F)sc23)cc(OC)c1CN(C)C` (stereo not drawn) [Compound D143], above 1000 nM. To `COc1cc(-c2cn(C)c(=O)c3ccsc23)cc(OC)c1CN1[C@H](C)CN(c2ccc3c(c2)C(=O)N(C2CCC(=O)NC2=O)C3)C[C@H]1C` (stereo partly drawn) [Compound D144] belongs below 10 nM; to `COc1cc(-c2cn(C)c(=O)c3cc(C(=O)NC4CCN(C5CC6(C5)CN(c5ccc7c(c5)C(=O)N(C5CCC(=O)NC5=O)C7)C6)CC4(F)F)sc23)cc(OC)c1CN(C)C` (stereo not drawn) [Compound D145], above 100 nM. `COc1cc(-c2cn(C)c(=O)c3cc(C(=O)NC4CCN(c5ccc6c(c5)C(=O)N(C5CCC(=O)NC5=O)C6)CC4)sc23)cc(OC)c1CN(C)C` (stereo not drawn) [Compound D146]: the DC50 is below 10 nM. To `[2H]C([2H])([2H])n1cc(-c2cc(OC)c(CN3CCN(c4ccc5c(c4)C(=O)N(C4CCC(=O)NC4=O)C5)CC3)c(OC)c2)c2sccc2c1=O` (stereo not drawn) [Compound D147] belongs below 10 nM. The result for `COc1cc(-c2cn(C)c(=O)c3c(C)c(C(=O)NC4CCN(C5CCN(c6ccc7c(c6)C(=O)N(C6CCC(=O)NC6=O)C7)CC5)CC4(F)F)sc23)cc(OC)c1CN(C)C` (stereo not drawn) [Compound D148] reads above 1000 nM; that for `COc1cc(-c2cn(C)c(=O)c3cc(C(=O)NC4CC5(CCN(c6ccc7c(c6)C(=O)N(C6CCC(=O)NC6=O)C7)CC5)C4)sc23)cc(OC)c1CN(C)C` (stereo not drawn) [Compound D149], below 10 nM; that for `COc1cc(-c2cn(C)c(=O)c3cc(C(=O)NC4CCN(C5CCN(c6ccc7c(c6)C(=O)N(C6CCC(=O)NC6=O)C7)CC5)CC4)sc23)cc(OC)c1CN(C)C` (stereo not drawn) [Compound D150], below 10 nM. The result for `COc1cc(-c2cn(C)c(=O)c3cc(C(=O)N[C@H]4CCN(c5ccc6c(c5)CN(C5CCC(=O)NC5=O)C6=O)CC4(F)F)sc23)cc(OC)c1CN(C)C` (stereo partly drawn) [Compound D151] reads below 10 nM; that for `COc1cc(-c2cn(C)c(=O)c3cc(C(=O)N[C@H]4CCN(c5ccc6c(c5)C(=O)N(C5CCC(=O)NC5=O)C6)CC4(F)F)sc23)cc(OC)c1CN(C)C` (stereo partly drawn) [Compound D152], below 10 nM; that for `COc1cc(-c2c(C)n(C)c(=O)c3ccsc23)cc(OC)c1CN1CCC(CN2CCC3(CC2)CN(c2ccc4c(c2)C(=O)N(C2CCC(=O)NC2=O)C4)C3)CC1` (stereo not drawn) [Compound D153], below 10 nM. `COc1cc(-c2cn(C)c(=O)c3cc(C(=O)N[C@@H]4CCN(c5ccc6c(c5)CN(C5CCC(=O)NC5=O)C6=O)CC4(F)F)sc23)cc(OC)c1CN(C)C` (stereo partly drawn) [Compound D155]: the DC50 was below 10 nM. To `COc1cc(-c2cn(C)c(=O)c3cc(C(=O)N[C@@H]4CCN(c5ccc6c(c5)C(=O)N(C5CCC(=O)NC5=O)C6)CC4(F)F)sc23)cc(OC)c1CN(C)C` (stereo partly drawn) [Compound D156] belongs below 10 nM; to `CCc1cc(-c2cn(C)c(=O)c3cc(C(=O)NC4CCN(C5CCN(c6ccc7c(c6)C(=O)N(C6CCC(=O)NC6=O)C7)CC5)CC4(F)F)sc23)cc(OC)c1CN(C)C` (stereo not drawn) [Compound D157], below 10 nM; to `COc1cc(-c2c(C)n(C)c(=O)c3ccsc23)cc(OC)c1CN1CCC2(CC1)CN(c1ccc3c(c1)C(=O)N(C1CCC(=O)NC1=O)C3)C2` (stereo not drawn) [Compound D158], below 10 nM. To `COc1cc(-c2cn(C)c(=O)c3cc(C(=O)NC4CCN(CCCCCOc5ccc6c(c5)C(=O)N(C5CCC(=O)NC5=O)C6)CC4(F)F)sc23)cc(OC)c1CN(C)C` (stereo not drawn) [Compound D159] belongs below 10 nM. As to `COc1cc(-c2cn(C)c(=O)c3c(C)csc23)cc(OC)c1CN1CCC(CN2CCC3(CC2)CC(Oc2ccc4c(c2)C(=O)N(C2CCC(=O)NC2=O)C4=O)C3)CC1` (stereo not drawn) [Compound D160], the DC50 is below 10 nM. On to `COc1cc(-c2cn(C)c(=O)c3c(C)csc23)cc(OC)c1CN1CCC(CN2CCC3(CC2)CN(c2ccc4c(c2)C(=O)N(C2CCC(=O)NC2=O)C4=O)C3)CC1` (stereo not drawn) [Compound D161], for which the DC50 is below 10 nM. For `COc1cc(-c2cn(C)c(=O)c3cc(C(=O)N[C@@H]4CCN(C5CCN(c6ccc7c(c6)C(=O)N(C6CCC(=O)NC6=O)C7)CC5)CC4(F)F)sc23)cc(OC)c1CN(C)C` (stereo partly drawn) [Compound D162], the DC50 was below 10 nM. With `COc1cc(-c2cn(C)c(=O)c3cc(C(=O)NC4CCN(CCCCCOc5ccc6c(c5)CN(C5CCC(=O)NC5=O)C6=O)CC4(F)F)sc23)cc(OC)c1CN(C)C` (stereo not drawn) [Compound D163], the DC50 is below 10 nM. With `COc1cc(-c2cn(C)c(=O)c3cc(C(=O)NC4CCN(c5ccc6c(c5)CN(C5CCC(=O)NC5=O)C6=O)CC4(F)F)sc23)cc(OC)c1CN(C)C` (stereo not drawn) [Compound D164], the DC50 is below 10 nM. To `COc1cc(-c2cn(C)c(=O)c3cc(C(=O)NC4CCN(c5ccc6c(c5)C(=O)N(C5CCC(=O)NC5=O)C6)CC4(F)F)sc23)cc(OC)c1CN(C)C` (stereo not drawn) [Compound D165] belongs below 10 nM.
